According to patent US20230117034A1, “PYRAZOLOTRIAZINES” (Bayer Aktiengesellschaft, priority 2019, published 2023):

Columns and labels:
[1] = target: CDK12/CycK (Homo sapiens, UniProt Q9NYV4); assay: CDK12/CycK high ATP kinase assay (TR-FRET, 2 mM ATP); format: biochemical; details: 2 mM ATP (high ATP); median; read-out: CDK12/CyclinK, 2 mM ATP (high ATP), IC50-[mol/l] (median)
Experimental: In the context of the present invention, the term “IC50 CDK12 hATP” refers to the IC50 values obtained according to the assay described in this section (2.2) herein below, i.e. the IC50 values for the inhibition of CDK12 at high (2 mM) ATP.
CDK12/CycK-inhibitory activity of compounds of the present invention at 2 millimol/L adenosine-tri-phosphate (ATP) was quantified employing the TR-FRET (TR-FRET=Time Resolved Fluorescence Energy Transfer) based CDK12/CycK activity inhibition assay as described in the following paragraphs.
A complex of human recombinant CDK12 and human recombinant CycK (both N-terminally His-tagged, expression and purification as described above) was used as enzyme. As substrate for the kinase reaction biotinylated peptide biotin-Ahx-KFELLPTPPLSPSRRSGL (C-terminus in amid form) was used which can be purchased e.g. form the company Biosyntan (Berlin-Buch, Germany).
For the assay 50 nanoL of a 100 fold concentrated solution of the test compound in DMSO was pipetted into either a black low volume 384 well microtiter plate or a black 1536 well microtiter plate (both Greiner Bio-One, Frickenhausen, Germany), 2 microL of a solution of CDK12/CycK in aqueous assay buffer [25 millimol/L HEPES pH 7.5, 20 millimol/L MgCl2, 5 millimol/L β-glycerophosphate, 2 millimol/L EGTA, 1.0 millimol/L dithiothreitol, 0.01% (v/v) Nonidet-P40 (Sigma), 0.01% (w/v) bovine serum albumin] were added and the mixture was incubated for 15 min at 22° C. to allow pre-binding of the test compounds to the enzyme before the start of the kinase reaction. Then the kinase reaction was started by the addition of 3 microL of a solution ATP (3.33 millimol/L=>final conc. in the 5 microL assay volume is 2 millimol/L) and substrate (1.67 micromol/L=>final conc. in the 5 microL assay volume is 1 micromol/L) in assay buffer and the resulting mixture was incubated for a reaction time of 60 min at 22° C. The concentration of CDK12/CycK was adjusted depending of the activity of the enzyme lot and was chosen appropriate to have the assay in the linear range, typical concentrations were about 0.75 nanomol/L. The reaction was stopped by the addition of 3 microL of a solution of TR-FRET detection reagents (125 nanomol/L streptavidine-XL665 [Cisbio Bioassays, Codolet, France] and 0.67 nanomol/L anti-Phospho-c-Myc (Ser 62) (E1J4K)-antibody from Cell Signalling [#13748] and 2 nanomol/L LANCE EU-W1024 labeled anti-rabbit IgG antibody [Perkin-Elmer, product no. 0083]) in an aqueous EDTA-solution (133 millimol/L EDTA, 0.27% (w/v) bovine serum albumin in 66.7 millimol/L HEPES pH 7.5).
(§1) The resulting mixture was incubated 1 h at 22° C. to allow the formation of complex between the phosphorylated biotinylated peptide and the detection reagents. Subsequently the amount of phosphorylated substrate was evaluated by measurement of the resonance energy transfer from the Eu-chelate to the streptavidine-XL. Therefore, the fluorescence emissions at 620 nm and 665 nm after excitation at 350 nm was measured in a TR-FRET reader, e.g. a Pherastar FS (BMG Labtechnologies, Offenburg, Germany) or a Viewlux (Perkin-Elmer). The ratio of the emissions at 665 nm and at […] was taken as the measure for the amount of phosphorylated substrate. The data were normalised (enzyme reaction without inhibitor=0% inhibition, all other assay components but no enzyme=100% inhibition).

[2] = target: T1, CDK9/CycT1 (Homo sapiens, UniProt P50750); assay: CDK9/CycT1 high ATP kinase assay (TR-FRET, 2 mM ATP); format: biochemical; details: 2 mM ATP (high ATP); median; read-out: CDK9/CyclinT1, 2 mM ATP (high ATP), IC50 (median)
T1 construct: Recombinant full-length His-tagged human CDK9 and CycT1; purchased Life Technologies PV4131; host or cells: insect cells
T1 sequence (P50750 whole entry): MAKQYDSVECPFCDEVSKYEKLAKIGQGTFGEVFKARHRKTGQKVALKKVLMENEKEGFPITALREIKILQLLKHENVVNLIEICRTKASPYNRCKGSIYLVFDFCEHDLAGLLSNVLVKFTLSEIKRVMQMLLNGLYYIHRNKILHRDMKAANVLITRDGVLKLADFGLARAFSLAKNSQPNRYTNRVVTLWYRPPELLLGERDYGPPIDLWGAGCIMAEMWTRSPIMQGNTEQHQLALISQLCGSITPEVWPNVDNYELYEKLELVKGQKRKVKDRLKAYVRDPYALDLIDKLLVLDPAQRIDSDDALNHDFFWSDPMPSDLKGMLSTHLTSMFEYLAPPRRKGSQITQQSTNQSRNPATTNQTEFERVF
T1 sequence (O60563 whole entry partner): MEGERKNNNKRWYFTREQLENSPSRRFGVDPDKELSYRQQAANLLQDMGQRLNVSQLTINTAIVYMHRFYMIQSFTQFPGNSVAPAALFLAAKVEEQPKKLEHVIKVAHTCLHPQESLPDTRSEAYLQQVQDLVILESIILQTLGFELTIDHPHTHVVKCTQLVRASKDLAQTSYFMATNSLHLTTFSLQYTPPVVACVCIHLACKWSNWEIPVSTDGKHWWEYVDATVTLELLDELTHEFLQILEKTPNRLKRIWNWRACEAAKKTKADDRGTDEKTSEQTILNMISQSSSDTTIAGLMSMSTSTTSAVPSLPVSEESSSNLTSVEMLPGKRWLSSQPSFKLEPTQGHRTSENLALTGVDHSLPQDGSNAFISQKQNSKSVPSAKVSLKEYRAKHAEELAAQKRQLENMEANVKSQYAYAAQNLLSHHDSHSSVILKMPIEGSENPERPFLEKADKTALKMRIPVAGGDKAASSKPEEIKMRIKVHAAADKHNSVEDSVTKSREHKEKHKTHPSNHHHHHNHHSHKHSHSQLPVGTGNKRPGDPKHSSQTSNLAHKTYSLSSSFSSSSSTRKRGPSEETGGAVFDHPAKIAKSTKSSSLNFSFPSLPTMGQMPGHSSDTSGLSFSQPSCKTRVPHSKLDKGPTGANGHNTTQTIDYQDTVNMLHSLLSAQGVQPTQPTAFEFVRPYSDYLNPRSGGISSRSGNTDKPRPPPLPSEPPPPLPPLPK
Experimental: CDK9/CycT1-inhibitory activity of compounds of the present invention at a high ATP concentration after preincubation of enzyme and test compounds was quantified employing the CDK9/CycT1 TR-FRET assay as described in the following paragraphs.
Recombinant full-length His-tagged human CDK9 and CycT1, expressed in insect cells and purified by Ni-NTA affinity chromatography, were purchased from Life Technologies (Cat. No PV4131). As substrate for the kinase reaction biotinylated peptide biotin-Ttds-[…] (C-terminus in amide form) was used which can be purchased e.g. form the company JERINI peptide technologies (Berlin, Germany).
For the assay 50 nanoL of a 100 fold concentrated solution of the test compound in DMSO was pipetted into either a black low volume 384 well microtiter plate or a black 1536 well microtiter plate (both Greiner Bio-One, Frickenhausen, Germany), 2 microL of a solution of CDK9/CycT1 in aqueous assay buffer [50 millimol/L Tris/HCl pH 8.0, 10 millimol/L MgCl2, 1.0 millimol/L dithiothreitol, 0.1 millimol/L sodium ortho-vanadate, 0.01% (v/v) Nonidet-P40 (Sigma)] were added and the mixture was incubated for 15 min at 22° C. to allow pre-binding of the test compounds to the enzyme before the start of the kinase reaction. […] The concentration of CDK9/CycT1 was adjusted depending of the activity of the enzyme lot and was chosen appropriate to have the assay in the linear range, typical concentrations were in the range of 0.5 microg/ml.
as §1, with “Pherastar” for “Pherastar FS”, “substrate.” for “substrate. The data were normalised (enzyme reaction without inhibitor=0% inhibition, all other assay components but no enzyme=100% inhibition).”

Chain of CDK12/CycK (Q9NYV4 with tags, fused parts or gaps): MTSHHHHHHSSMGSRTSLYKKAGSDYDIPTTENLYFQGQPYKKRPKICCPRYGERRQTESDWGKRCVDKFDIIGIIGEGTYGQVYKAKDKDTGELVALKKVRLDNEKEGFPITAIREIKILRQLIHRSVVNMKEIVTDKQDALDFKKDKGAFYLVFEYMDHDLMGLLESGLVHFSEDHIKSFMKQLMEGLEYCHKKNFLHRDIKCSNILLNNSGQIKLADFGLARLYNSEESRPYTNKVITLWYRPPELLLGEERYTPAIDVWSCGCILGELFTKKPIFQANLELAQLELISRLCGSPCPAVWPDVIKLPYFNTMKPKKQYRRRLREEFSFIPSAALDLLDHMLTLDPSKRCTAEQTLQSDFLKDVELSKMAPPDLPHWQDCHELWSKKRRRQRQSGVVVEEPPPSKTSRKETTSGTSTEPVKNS
Chain of CDK12/CycK (O75909 1-300 partner limits assumed): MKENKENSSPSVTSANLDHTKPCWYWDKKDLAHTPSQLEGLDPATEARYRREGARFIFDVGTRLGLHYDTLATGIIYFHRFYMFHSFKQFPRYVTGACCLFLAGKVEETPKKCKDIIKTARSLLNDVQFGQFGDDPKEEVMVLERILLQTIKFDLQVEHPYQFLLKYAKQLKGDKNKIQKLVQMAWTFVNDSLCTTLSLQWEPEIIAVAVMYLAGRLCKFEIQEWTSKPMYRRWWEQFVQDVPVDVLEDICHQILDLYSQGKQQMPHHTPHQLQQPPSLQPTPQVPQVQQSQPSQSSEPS

Structure (SMILES)	IC50 [1]	IC50 [2]
NCCc1cccc2[nH]c(CNc3nc(N4CCOCC4)nc4c(Br)cnn34)nc12 [Example 112, N-{[7-(2-aminoethyl)-1H-benzimidazol-2-yl]methyl}-8-bromo-2-(morpholin-4-yl)pyrazolo[1,5-a][1,3,5]triazin-4-amine]	6.68 µM	> 20 µM
O=S1(=O)CCN(c2nc(NCc3nc4ccccc4[nH]3)n3ncc(Br)c3n2)CC1 [Example 166, 4-(4-{[(1H-benzimidazol-2-yl)methyl]amino}-8-bromopyrazolo[1,5-a][1,3,5]triazin-2-yl)-1 lambda^6-thiomorpholine-1,1-dione]	6.09 µM	> 20 µM
C[C@H]1CN(c2nc(NCc3nnc(-c4cccc(F)c4)[nH]3)n3ncc(Br)c3n2)CCN1C [Example 154, 8-bromo-2-[(3S)-3,4-dimethylpiperazin-1-yl]-N-{[5-(3-fluorophenyl)-4H-1,2,4-triazol-3-yl]methyl}pyrazolo[1,5-a][1,3,5]triazin-4-amine]	7.17 µM	2.56 µM
CN1CCN(c2nc(NCc3nc4c(F)cccc4[nH]3)n3ncc(Br)c3n2)CC1 [Example 126, 8-bromo-N-[(4-fluoro-1H-benzimidazol-2-yl)methyl]-2-(4-methylpiperazin-1-yl)pyrazolo[1,5-a][1,3,5]triazin-4-amine]	6.83 µM	> 20 µM
CC1(C)CN(c2nc(NCc3nnc(-c4ccccc4)[nH]3)n3ncc(C4CC4)c3n2)CCO1 [Example 94, 8-cyclopropyl-2-(2,2-dimethylmorpholin-4-yl)-N-[(5-phenyl-4H-1,2,4-triazol-3-yl)methyl]pyrazolo[1,5-a][1,3,5]triazin-4-amine]	8.79 µM	12.8 µM
CC(C)c1cnn2c(NCc3nc4ccccc4[nH]3)nc(N(C)CC(C)(C)O)nc12 [Example 5, 1-{[4-{[(1H-benzimidazol-2-yl)methyl]amino}-8-(propan-2-yl)pyrazolo[1,5-a][1,3,5]triazin-2-yl](methyl)amino}-2-methylpropan-2-ol]	5.17 µM	> 20 µM
c1cncc(-c2cnn3c(NCc4nc5ccccc5[nH]4)nc(N4CCOCC4)nc23)c1 [Example 108, N-[(1H-benzimidazol-2-yl)methyl]-2-(morpholin-4-yl)-8-(pyridin-3-yl)pyrazolo[1,5-a][1,3,5]triazin-4-amine]	> 20 µM	> 20 µM
Cc1cccc2[nH]c(CNc3nc(N4CCN(C)CC4)nc4c(Br)cnn34)nc12 [Example 151, 8-bromo-N-[(4-methyl-1H-benzimidazol-2-yl)methyl]-2-(4-methylpiperazin-1-yl)pyrazolo[1,5-a][1,3,5]triazin-4-amine]	4.24 µM	> 20 µM
Brc1cnn2c(NCc3nnc(-c4ccccc4)[nH]3)nc(N3C[C@@H]4C[C@H]3CO4)nc12 [Example 120, 8-bromo-2-[(1S,4S)-2-oxa-5-azabicyclo[2.2.1]heptan-5-yl]-N-[(5-phenyl-4H-1,2,4-triazol-3-yl)methyl]pyrazolo[1,5-a][1,3,5]triazin-4-amine]	13.2 µM	10.4 µM
Clc1ccc2[nH]c(CNc3nc(N4CCOCC4)nc4c(Br)cnn34)nc2c1 [Example 162, 8-bromo-N-[(5-chloro-1H-benzimidazol-2-yl)methyl]-2-(morpholin-4-yl)pyrazolo[1,5-a][1,3,5]triazin-4-amine]	1.02 µM	17.4 µM
C[C@H]1CCCCN1c1nc(NCc2nc3ccccc3[nH]2)n2ncc(Br)c2n1 [Example 141, N-[(1H-benzimidazol-2-yl)methyl]-8-bromo-2-[(2S)-2-methylpiperidin-1-yl]pyrazolo[1,5-a][1,3,5]triazin-4-amine]	1.31 µM	12.9 µM
CN1CCN(c2nc(NCc3nnc(-c4cccc(F)c4)[nH]3)n3ncc(Br)c3n2)CC1 [Example 136, 8-bromo-N-{[5-(3-fluorophenyl)-4H-1,2,4-triazol-3-yl]methyl}-2-(4-methylpiperazin-1-yl)pyrazolo[1,5-a][1,3,5]triazin-4-amine]	4.12 µM	1.42 µM
C[C@H]1CN(c2nc(NCc3nnc(-c4ccccc4)[nH]3)n3ncc(Br)c3n2)CCN1C.O=CO [Example 122, 8-bromo-2-[(3S)-3,4-dimethylpiperazin-1-yl]-N-[(5-phenyl-4H-1,2,4-triazol-3-yl)methyl]pyrazolo[1,5-a][1,3,5]triazin-4-amine formate]	> 20 µM	4.26 µM
Fc1cccc2[nH]c(CNc3nc(N4CCOCC4)nc4c(Br)cnn34)nc12 [Example 97, 8-bromo-N-[(4-fluoro-1H-benzimidazol-2-yl)methyl]-2-(morpholin-4-yl)pyrazolo[1,5-a][1,3,5]triazin-4-amine]	0.788 µM	13.4 µM
C[C@@H]1CCCCN1c1nc(NCc2nc3ccccc3[nH]2)n2ncc(Br)c2n1 [Example 140, N-[(1H-benzimidazol-2-yl)methyl]-8-bromo-2-[(2R)-2-methylpiperidin-1-yl]pyrazolo[1,5-a][1,3,5]triazin-4-amine]	8.15 µM	> 20 µM
Fc1cccc(-c2nnc(CNc3nc(N4C[C@H]5C[C@@H]4CO5)nc4c(Br)cnn34)[nH]2)c1 [Example 153, 8-bromo-N-{[5-(3-fluorophenyl)-4H-1,2,4-triazol-3-yl]methyl}-2-[(1R,4R)-2-oxa-5-azabicyclo[2.2.1]heptan-5-yl]pyrazolo[1,5-a][1,3,5]triazin-4-amine]	2.95 µM	1.23 µM
Fc1cccc(-c2nnc(CNc3nc(N4CCNCC4)nc4c(Br)cnn34)[nH]2)c1 [Example 152, 8-bromo-N-{[5-(3-fluorophenyl)-4H-1,2,4-triazol-3-yl]methyl}-2-(piperazin-1-yl)pyrazolo[1,5-a][1,3,5]triazin-4-amine]	2.99 µM	1.99 µM
C[C@@H]1CN(c2nc(NCc3nc4c(F)cccc4[nH]3)n3ncc(Br)c3n2)C[C@H](C)O1 [Example 109, 8-bromo-2-[(2R,6S)-2,6-dimethylmorpholin-4-yl]-N-[(4-fluoro-1H-benzimidazol-2-yl)methyl]pyrazolo[1,5-a][1,3,5]triazin-4-amine]	0.176 µM	1.79 µM
